Marks after values point to notes of the source that are not given here.
How the values were obtained:
[1] = test system: RAHYNIVTF-specific CD8^+ T cells; assay: Strength of T cell response in blood, D^b-[…] tetramer flow cytometry; assay type: in vivo, C57BL/6 mice; conditions: for % Tm+ of CD8: emulsified 1:1 with Montanide ISA VG51, s.c.; for % CD62L+ KLRG1+ (% of TM+ CD8 T cells) / % CD62L− KLRG1+ (% of TM+ CD8 T cells): Montanide 1:1
Method: On day 9 after vaccination, blood was drawn from the tail vein of all mice. Blood samples were transferred to a 96-wells culture plate and centrifuged for 5 minutes at 1600 rpm. Erythrocytes were lysed by suspending blood cell pellets in Lysis buffer until orange coloration was observed. Subsequently, cells were washed in FACS buffer and stained with the fluorescent antibodies, the D^b-[…]-APC tetramer and 7-AAD mentioned in the Materials section above. After 30 minutes of incubation on ice, cells were washed and analyzed on a BD LSRII flow cytometer in the Leiden University Medical Center (Dept. of Rheumatology).
A study by Van Duikeren et al. (J Immunol, 2012; 189(7): 3397-403) aimed to identify parameters that correlated with the induction of an effective antitumor response. By identifying such biomarkers, different vaccine compositions can be tested in non-tumor bearing mice with prognostic value in tumor models. The authors found a correlation between the expression of KLRG1 and absence of CD62L expression on the one hand and effective antitumor immune responses on the other hand. We determined the percentages of KLRG1- and CD62L-expressing D^b-[…]^+ CD8^+ T cells in the blood of vaccinated mice on day 9 after vaccination using flow cytometry. No difference in percentage of […]-specific KLRG1^+ CD62L^− CD8^+ T cells is observed between groups 3 and 4. Not enough […]-specific CD8+ T cells were detected to reliably study the expression of KLRG1 and CD62L in the groups of mice vaccinated with vehicle only (Group 1 and 2). See Table 10 for the average percentages and standard deviations per group.

[2] = test system: TC-1 tumor cells, expressing the oncogenic E6 and E7 proteins of HPV16; assay: Therapeutic vaccination of mice carrying TC-1 tumors; assay type: in vivo, C57BL/6 mice
Method: The following groups of mice were included in the study: • Group 1: (n=5) 40% v/v DMSO/WFI emulsified 1:1 with Montanide ISA VG51. • Group 2: (n=5) Reconstitution composition (750 μL 0.1M Citric acid in water, 62.5 μL Propylene Glycol, 125 μL Ethanol and 62.5 μL Cremophor EL per mL) emulsified 1:1 with Montanide ISA VG51. • Group 3: (n=10) SLP […] and 20 μg CpG ODN1826/mouse dissolved in 40% v/v DMSO/WFI, emulsified 1:1 with Montanide ISA VG51. • Group 4: (n=10) SLP […] (SEQ ID NO: 6) and 20 μg CpG ODN1826/mouse dissolved in Reconstitution composition (750 μL 0.1M Citric acid in water, 62.5 μL Propylene Glycol, 125 μL Ethanol and 62.5 μL Cremophor EL per mL), emulsified 1:1 with Montanide ISA VG51.
For mice in Group 1, a solution was prepared by admixing and subsequently swirling 400 μL DMSO and 600 μL WFI. The solution was taken up in a 2 mL Luer-Lock syringe (Syringe A). In another 2 mL Luer-Lock syringe (Syringe B) 1 mL of Montanide ISA VG51 was taken up, after which both syringes were connected to a T-connector. An emulsion was generated by mixing the contents back and forth extensively. After mixing, the syringes were disconnected and a 25 G needle was placed on the syringe containing the emulsion. Per mouse, 100 μL was injected in the left flank subcutaneously.
The vaccine prepared for Group 2 was prepared in an identical manner, only differing by the use of reconstitution composition (750 μL 0.1M citric acid in water and 250 μL PG/EtOH/Cremophor EL 1:2:1, i.e. 0.075M citric acid, 6.25% v/v propylene glycol CAS no. 57-55-6, 12.5% v/v ethanol and 6.25% v/v polyoxyethyleneglyceroltriricinoleate 35 CAS no. 61791-12-6 in water) instead of DMSO and WFI. […]
TC-1 tumor cells, expressing the oncogenic E6 and E7 proteins of HPV16 were cultured in complete IMDM culture medium, supplemented with 400 μg/ml geneticin. […] The tumor size of all mice was monitored at least twice a week using a caliper up to 75 days after tumor challenge.

[3] = Group 3 average: SLP SEQ ID NO: 6 + CpG ODN1826 in 40% v/v DMSO/WFI, blood day 9 after vaccination
[4] = Group 4 average: SLP SEQ ID NO: 6 + CpG ODN1826 in Reconstitution composition, blood day 9 after vaccination

GQAEPDRAHYNIVTFCCKCDSTLRLCVQSTHVDIR [SLP 6]
% Tm+ of CD8 ([1]; Group 3 average: SLP SEQ ID NO: 6 + 20 μg CpG ODN1826/mouse in 40% v/v DMSO/WFI, blood day 9 after vaccination): 1.4%
% CD62L+ KLRG1+ (% of TM+ CD8 T cells) [1, 3]: 4.0%
% CD62L− KLRG1+ (% of TM+ CD8 T cells) [1, 3]: 51.9%
% Tm+ of CD8 ([1]; Group 4 average: SLP SEQ ID NO: 6 + 20 μg CpG ODN1826/mouse in Reconstitution composition (0.1M citric acid/PG/EtOH/Cremophor EL), blood day 9, p < 0.05 vs group 3): 4.8* %
% CD62L+ KLRG1+ (% of TM+ CD8 T cells) [1, 4]: 4.0%
% CD62L− KLRG1+ (% of TM+ CD8 T cells) [1, 4]: 52.2%
percentage of induced D^b-RAYNIVTF (tetramer) positive CD8^+ T cells ([1]; group 4 (Rec. composition+SLP) vs group 3 (DMSO+SLP), p=0.022): enhanced tetramer-positive CD8^+ T cell response
outgrowth of TC-1 tumors ([2]; SLP 6 and CpG1826 in DMSO/WFI or Reconstitution composition, Montanide emulsion, s.c. day 8, monitored up to 75 days): Tumor regression is observed in all mice
overall tumor outgrowth, comparison of formulations ([2]; SLP 6 dissolved in DMSO/WFI vs Reconstitution composition): No differences were observed in overall tumor outgrowth
Kaplan-Meier survival ([2]; SLP-vaccinated groups: DMSO/WFI vs Reconstitution composition): no differences between the vaccinated groups

Reference: patent US12097252B2, “Formulation of a peptide vaccine” (priority 2016, dated 2024)
